In patent US8901118B2, “Compounds and methods for kinase modulation, and indications therefor” (Plexxikon Inc., priority 2010, dated 2014):

Tests used:
[1] = molecular target: T1, BCR-NTRK1 BaF3 cells (Homo sapiens, UniProt P04629); experiment: BaF3 BCR-NTRK1 cell proliferation assay (ATPlite); type: cell-based; details: read-out: Inhibition of Cell Proliferation IC50, BCR/BaF3 TrkA
T1 construct: fused on or other part: P11274 (Breakpoint cluster region protein)
Method: (§1) Compounds are assessed in a variety of cell based assays. For example BaF3 cells engineered with any of BCR-FMS, BCR-KIT, BCR-FLT3, BCR-NTRK1, BCR-NTRK2, and BCR-NTRK3, are used in cell proliferation assays to assess inhibitory activity of Fms, Kit, Flt-3, TrkA, TrkB, and TrkC, respectively. An MV-4-11 (leukemia) cell proliferation assay is used to assess inhibitory activity in Flt-3, and SKNSH (human neuroblastoma) cell proliferation assay is used to assess efficacy of Fms/Trk inhibitors. Additional cells may be assayed similarly to assess the efficacy of Fms/Trk inhibitors, such as MiaPaCa (human pancreatic cancer) and Capan-1 (human pancreatic carcinoma) cells. Reagent and assay conditions are as follows: • BaF3 cells: • Maintained in RPMI containing 10% FBS, 1% PenStrep, 1% NEAA, and 1% L-Glutamine, supplemented with 1 mg/mL G418 and 5% WEHI-CM (or recombinant murine IL-3). • Confluent cells are split 1:50 to 1:100 every 3-4 days. • MV-4-11 cells: • Maintained in Iscove's Modified Dulbecco's Medium containing 10% FBS. • Confluent cells are split 1:4 every 3-4 days. • SKNSH cells: RPMI containing 10% FBS. On day 1, cells are counted, then centrifuged in a conical tube for 5 minutes at 1000 rpm. The supernatant is removed and cells are re-suspended as follows: • BaF3: resuspend in growth media +1 mg/mL G418 (without WEHFIL-3) to 2×10^5 cells/mL. • MV-4-11: resuspend in growth media to 5×10^5 cells/mL. • SKNSH: resuspend in growth media to 2×10^4 cells/mL. The cells are plated (50 μL, 150 μL for SKNSH cells) in each well of a 96-well dish (Corning 3610) and incubated at 37° C. in 5% CO2 overnight, cells plated to a final concentration of cells as follows: • BaF3: 10,000 cells per well. • MV-4-11: 25,000 cells per well. • SKNSH: 3,000 cells per well. On day 2, compound at a maximum concentration of 5 mM is serially diluted 1:3 for a total of 8 point titration with DMSO as a control. A 1 μL aliquot of each dilution point is added to 249 μL growth media and 50 μL is added to a well containing cells, providing 10 μM compound for the maximum concentration point. The cells are incubated for 3 days at 37° C. in 5% CO2. For SKNSH cells, a 0.75 μL aliquot of appropriate dilution in DMSO is added to 150 μL of cells. On day 5, ATPlite 1 step Luminescence Assay System (Perkin Elmer #6016739) is brought to room temperature along with the cell cultures. ATPlite is added to each well as follows: • BaF3: 25 μL per well. • MV-4-11: 40 μL per well. • SKNSH: 20 μL per well. The cells are incubated at room temperature for 10 minutes, then luminescence is read on Safire reader. The measured luminescence correlates directly with cell number, such that the reading as a function of compound concentration is used to determine the IC50 value.
(§2) It is understood that the results of these assays may vary as assay conditions are varied. Inhibition levels determined under the conditions described herein represent a relative activity for the compounds tested under the specific conditions employed. The cell based assays are likely to show variability due to the complexity of the system and the sensitivity thereof to any changes in the assay conditions. […] Results for compounds that are tested and show substantially no inhibition below the highest tested concentration are represented as “-” in the tables below. In some instances, the compounds were not tested in all of the assays, or assay results were not valid, as indicated by NA in the tables below.

[2] = molecular target: T2, BCR-NTRK3 BaF3 cells (Homo sapiens, UniProt Q16288); experiment: BaF3 BCR-NTRK3 cell proliferation assay (ATPlite); type: cell-based; details: read-out: Inhibition of Cell Proliferation IC50, BCR/BaF3 TrkC
T2 construct: fused on or other part: P11274 (Breakpoint cluster region protein)
T2 sequence (Q16288 whole entry, the tested form may be a part): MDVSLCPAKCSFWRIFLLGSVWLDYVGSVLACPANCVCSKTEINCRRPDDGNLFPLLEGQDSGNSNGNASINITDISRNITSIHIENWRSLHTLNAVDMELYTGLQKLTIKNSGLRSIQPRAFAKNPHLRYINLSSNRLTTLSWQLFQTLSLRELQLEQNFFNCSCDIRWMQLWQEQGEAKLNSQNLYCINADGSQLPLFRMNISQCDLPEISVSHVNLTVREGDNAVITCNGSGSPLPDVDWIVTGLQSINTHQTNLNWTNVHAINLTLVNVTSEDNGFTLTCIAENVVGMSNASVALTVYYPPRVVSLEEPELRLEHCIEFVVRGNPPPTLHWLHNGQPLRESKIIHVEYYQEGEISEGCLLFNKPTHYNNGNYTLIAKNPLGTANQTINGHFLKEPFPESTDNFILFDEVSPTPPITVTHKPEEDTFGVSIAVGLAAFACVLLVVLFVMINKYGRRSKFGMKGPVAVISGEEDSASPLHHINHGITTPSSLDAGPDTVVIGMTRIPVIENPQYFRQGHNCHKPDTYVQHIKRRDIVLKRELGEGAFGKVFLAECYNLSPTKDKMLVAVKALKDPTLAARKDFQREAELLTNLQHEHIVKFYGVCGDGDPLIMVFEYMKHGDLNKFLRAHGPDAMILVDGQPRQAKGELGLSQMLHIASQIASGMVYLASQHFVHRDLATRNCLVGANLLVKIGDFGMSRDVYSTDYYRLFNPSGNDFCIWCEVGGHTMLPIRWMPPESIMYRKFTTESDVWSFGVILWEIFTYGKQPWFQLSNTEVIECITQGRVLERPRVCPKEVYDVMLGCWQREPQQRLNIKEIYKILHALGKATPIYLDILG
Method: as §1, §2

[3] = molecular target: T3, BCR-NTRK2 BaF3 cells (Homo sapiens, UniProt Q16620); experiment: BaF3 BCR-NTRK2 cell proliferation assay (ATPlite); type: cell-based; details: read-out: Inhibition of Cell Proliferation IC50, BCR/BaF3 TrkB
T3 construct: fused on or other part: P11274 (Breakpoint cluster region protein)
T3 sequence (Q16620 538-807): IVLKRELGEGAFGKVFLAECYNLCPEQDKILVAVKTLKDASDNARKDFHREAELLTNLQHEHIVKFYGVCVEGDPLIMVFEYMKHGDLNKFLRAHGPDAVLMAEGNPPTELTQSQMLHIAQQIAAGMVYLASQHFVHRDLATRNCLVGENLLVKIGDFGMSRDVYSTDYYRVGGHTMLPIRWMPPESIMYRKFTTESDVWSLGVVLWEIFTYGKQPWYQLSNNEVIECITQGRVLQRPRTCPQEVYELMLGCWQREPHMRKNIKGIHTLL
Method: as §1, §2

[4] = molecular target: CYP2C9 (Homo sapiens, UniProt P11712); experiment: CYP2C9 inhibition (fluorescent substrate MFC); type: in vitro ADME; details: read-out: Cyp IC50 2C9
CYP2C9, sequence (P11712 whole entry): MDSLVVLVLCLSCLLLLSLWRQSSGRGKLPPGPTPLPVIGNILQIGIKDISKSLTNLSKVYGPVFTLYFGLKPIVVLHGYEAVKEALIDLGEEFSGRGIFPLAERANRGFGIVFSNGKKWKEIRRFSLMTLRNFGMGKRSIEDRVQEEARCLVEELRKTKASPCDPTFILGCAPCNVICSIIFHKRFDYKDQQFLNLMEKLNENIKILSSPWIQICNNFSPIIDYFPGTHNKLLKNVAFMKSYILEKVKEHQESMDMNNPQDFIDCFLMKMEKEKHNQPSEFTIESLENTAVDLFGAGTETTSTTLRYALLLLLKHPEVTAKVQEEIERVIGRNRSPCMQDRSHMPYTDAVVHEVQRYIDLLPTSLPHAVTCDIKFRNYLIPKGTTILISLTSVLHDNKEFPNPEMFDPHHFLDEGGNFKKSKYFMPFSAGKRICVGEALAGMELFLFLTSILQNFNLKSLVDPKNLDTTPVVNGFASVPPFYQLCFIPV
Method: (§3) CYP (Cytochrome P450) enzymes are the major drug metabolizing enzymes present in the liver. The inhibition of CYP enzyme activity (IC50) for each of CYP1A2, CYP2C19, CYP2C9, CYP2D6, CYP3A4(BFC) and CYP3A4(BQ) is determined for compounds, where inhibition of metabolism of a known substrate leads to a decrease in the fluorescence of the metabolized product. The fluorescence of the product is monitored as a function of compound concentration. Compounds are dissolved in DMSO to a concentration of 100 mM. These are diluted 1 μL into 82 μL of acetonitrile. An 11 μL aliquot of this solution is then added to 204 μL of cofactor mix (1.3% NADPH Regeneration system Solution A, 1.04% NADPH Regeneration system Solution B from BD Biosciences, 5% acetonitrile and 0.05% DMSO). These are then serially diluted 1:1 (160 μL to 160 μL co-factor mix) for a total of 10 points. A 10 μL aliquot of this final mixture is dispensed into 384 well assay plates and incubated for 10 minutes at 37° C. […] Assay plates are incubated at 37° C. (CYP1A2-15 min; CYP2C9-45 min; CYP2C19, 2D6 and 3A4-30 min) and read in a Tecan Safire 2 plate reader (CYP1A2, 2C19 and 3A4 409 ex/460 em; CYP2C9 and 2D6 409 ex/530 em). The signal versus compound concentration is used to determine the IC50. The enzymes and substrates for this assay are obtained from BD Biosciences.

[5] = molecular target: CYP2C19 (Homo sapiens, UniProt P33261); experiment: CYP2C19 inhibition (fluorescent substrate CEC); type: in vitro ADME; details: read-out: Cyp IC50 2C19
CYP2C19, sequence (P33261 whole entry): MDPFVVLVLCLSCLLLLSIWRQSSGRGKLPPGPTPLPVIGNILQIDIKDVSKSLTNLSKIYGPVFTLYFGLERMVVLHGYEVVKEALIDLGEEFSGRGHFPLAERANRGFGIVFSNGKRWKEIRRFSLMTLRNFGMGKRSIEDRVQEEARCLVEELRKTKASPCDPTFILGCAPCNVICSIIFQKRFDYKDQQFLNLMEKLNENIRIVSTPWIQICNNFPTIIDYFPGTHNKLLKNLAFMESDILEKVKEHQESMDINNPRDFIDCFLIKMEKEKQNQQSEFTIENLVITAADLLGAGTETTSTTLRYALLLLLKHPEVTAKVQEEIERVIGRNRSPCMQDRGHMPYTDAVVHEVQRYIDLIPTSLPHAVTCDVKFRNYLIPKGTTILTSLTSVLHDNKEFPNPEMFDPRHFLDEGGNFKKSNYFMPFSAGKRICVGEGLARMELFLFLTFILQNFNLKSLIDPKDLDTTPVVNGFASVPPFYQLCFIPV
Method: as §3

[6] = molecular target: CYP3A4(BFC) (Homo sapiens, UniProt P08684); experiment: CYP3A4(BFC) inhibition; type: in vitro ADME; details: CYP3A4, substrate BFC; read-out: Cyp IC50 3A4(BFC)
CYP3A4(BFC), sequence (P08684 whole entry): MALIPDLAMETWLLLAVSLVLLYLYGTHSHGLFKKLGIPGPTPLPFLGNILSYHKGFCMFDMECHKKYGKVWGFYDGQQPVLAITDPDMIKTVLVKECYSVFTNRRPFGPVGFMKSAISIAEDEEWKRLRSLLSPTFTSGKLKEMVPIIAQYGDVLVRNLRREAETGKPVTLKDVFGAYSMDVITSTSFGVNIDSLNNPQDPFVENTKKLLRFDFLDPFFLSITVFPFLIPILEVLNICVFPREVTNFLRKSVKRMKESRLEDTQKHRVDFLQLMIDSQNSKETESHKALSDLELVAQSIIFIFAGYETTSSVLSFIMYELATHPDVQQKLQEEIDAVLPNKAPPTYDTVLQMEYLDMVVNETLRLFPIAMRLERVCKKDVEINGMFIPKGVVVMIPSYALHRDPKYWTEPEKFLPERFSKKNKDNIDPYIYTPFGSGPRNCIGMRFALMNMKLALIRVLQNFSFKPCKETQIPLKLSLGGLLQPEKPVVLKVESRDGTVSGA
Method: as §3

T1 sequence (P04629 510-781): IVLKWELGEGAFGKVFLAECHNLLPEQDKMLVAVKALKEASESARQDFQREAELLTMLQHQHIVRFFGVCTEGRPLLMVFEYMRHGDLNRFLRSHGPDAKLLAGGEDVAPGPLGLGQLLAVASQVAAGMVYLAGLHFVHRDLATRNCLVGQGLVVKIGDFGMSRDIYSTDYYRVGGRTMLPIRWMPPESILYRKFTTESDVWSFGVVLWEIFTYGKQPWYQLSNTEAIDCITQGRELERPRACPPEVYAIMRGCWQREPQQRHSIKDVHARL

Fc1ccccc1Nc1ncc(Cc2c[nH]c3ncc(Cl)cc23)cn1 [Compound P-3014, [5-(5-Chloro-1H-pyrrolo[2,3-b]pyridin-3-ylmethyl)-pyrimidin-2-yl]-(2-fluoro-phenyl)-amine]
IC50 [1]: > 10 µM | IC50 [2]: > 10 µM | IC50 [3]: > 10 µM

Clc1cnc2[nH]cc(Cc3cnc(Nc4ccccc4Cl)nc3)c2c1 [Compound P-3015, (2-Chloro-phenyl)-[5-(5-chloro-1H-pyrrolo[2,3-b]pyridin-3-ylmethyl)-pyrimidin-2-yl]-amine]
IC50 [1]: > 10 µM | IC50 [2]: > 10 µM | IC50 [3]: > 10 µM

CNc1ncnc2[nH]cc(C(=O)c3ccc(Nc4ccc(OC)nc4)nc3OC)c12 [Compound P-4085, [2-methoxy-6-[(6-methoxy-3-pyridyl)amino]-3-pyridyl]-[4-(methylamino)-7H-pyrrolo[2,3-d]pyrimidin-5-yl]methanone]
IC50 [1]: < 1 µM | IC50 [2]: < 0.1 µM

CCc1ccc(Nc2ccc(C(=O)c3c[nH]c4ncnc(Nc5ccc(C)nc5)c34)c(F)n2)cn1 [Compound P-4086, [6-[(6-ethyl-3-pyridyl)amino]-2-fluoro-3-pyridyl]-[4-[(6-methyl-3-pyridyl)amino]-7H-pyrrolo[2,3-d]pyrimidin-5-yl]methanone]
IC50 [1]: < 0.01 µM

CCc1ccc(Nc2ccc(C(=O)c3c[nH]c4ncnc(NC5CCC(F)(F)CC5)c34)c(F)n2)cn1 [Compound P-4096, [4-[(4,4-difluorocyclohexyl)amino]-7H-pyrrolo[2,3-d]pyrimidin-5-yl]-[6-[(6-ethyl-3-pyridyl)amino]-2-fluoro-3-pyridyl]methanone]
IC50 [4]: < 5 µM | IC50 [5]: < 5 µM | IC50 [1]: < 0.01 µM | IC50 [6]: > 10 µM | IC50 [3]: < 0.01 µM

CCc1ccc(Nc2ccc(C(=O)c3c[nH]c4ncnc(N[C@@H](C)c5ccc(F)cc5)c34)c(F)n2)cn1 [Compound P-4097, [6-[(6-ethyl-3-pyridyl)amino]-2-fluoro-3-pyridyl]-[4-[[(1S)-1-(4-fluorophenyl)ethyl]amino]-7H-pyrrolo[2,3-d]pyrimidin-5-yl]methanone]
IC50 [4]: < 5 µM | IC50 [5]: < 5 µM | IC50 [1]: < 0.1 µM | IC50 [6]: > 10 µM | IC50 [3]: < 0.1 µM

CCc1ccc(Nc2ccc(C(=O)c3c[nH]c4ncnc(NCCCOC)c34)c(F)n2)cn1 [Compound P-4098, [6-[(6-ethyl-3-pyridyl)amino]-2-fluoro-3-pyridyl]-[4-(3-methoxypropylamino)-7H-pyrrolo[2,3-d]pyrimidin-5-yl]methanone]
IC50 [4]: < 5 µM | IC50 [5]: < 5 µM | IC50 [1]: < 0.01 µM | IC50 [6]: > 10 µM | IC50 [3]: < 0.01 µM

CCc1ccc(Nc2ccc(C(=O)c3c[nH]c4ncnc(NC5CCCC5)c34)c(F)n2)cn1 [Compound P-4099, [4-(cyclopentylamino)-7H-pyrrolo[2,3-d]pyrimidin-5-yl]-[6-[(6-ethyl-3-pyridyl)amino]-2-fluoro-3-pyridyl]methanone]
IC50 [4]: < 5 µM | IC50 [5]: < 5 µM | IC50 [1]: < 0.01 µM | IC50 [6]: > 10 µM | IC50 [3]: < 0.01 µM

CCCCNc1ncnc2[nH]cc(C(=O)c3ccc(Nc4ccc(CC)nc4)nc3F)c12 [Compound P-4100, [4-(butylamino)-7H-pyrrolo[2,3-d]pyrimidin-5-yl]-[6-[(6-ethyl-3-pyridyl)amino]-2-fluoro-3-pyridyl]methanone]
IC50 [4]: < 5 µM | IC50 [5]: < 5 µM | IC50 [1]: < 0.01 µM | IC50 [6]: > 10 µM | IC50 [3]: < 0.01 µM

CC(C)Nc1ncnc2[nH]cc(C(=O)c3ccc(NC4CCCCC4)nc3F)c12 [Compound P-4101, [6-(cyclohexylamino)-2-fluoro-3-pyridyl]-[4-(isopropylamino)-7H-pyrrolo[2,3-d]pyrimidin-5-yl]methanone]
IC50 [4]: 5 to 10 µM | IC50 [5]: 5 to 10 µM | IC50 [1]: < 0.1 µM | IC50 [6]: > 10 µM | IC50 [3]: < 0.01 µM

CNc1ncnc2[nH]cc(C(=O)c3ccc(NC4CCCCC4)nc3F)c12 [Compound P-4102, [6-(cyclohexylamino)-2-fluoro-3-pyridyl]-[4-(methylamino)-7H-pyrrolo[2,3-d]pyrimidin-5-yl]methanone]
IC50 [4]: < 5 µM | IC50 [5]: < 5 µM | IC50 [1]: < 1 µM | IC50 [6]: > 10 µM | IC50 [3]: < 0.1 µM

CC(C)Nc1ncnc2[nH]cc(C(=O)c3ccc(NC4CCCCC4)nc3Cl)c12 [Compound P-4109, [2-chloro-6-(cyclohexylamino)-3-pyridyl]-[4-(isopropylamino)-7H-pyrrolo[2,3-d]pyrimidin-5-yl]methanone]
IC50 [4]: 5 to 10 µM | IC50 [5]: 5 to 10 µM | IC50 [1]: < 1 µM | IC50 [6]: > 10 µM | IC50 [3]: < 1 µM

CNc1ncnc2[nH]cc(C(=O)c3ccc(NC4CCCCC4)nc3Cl)c12 [Compound P-4110, [2-chloro-6-(cyclohexylamino)-3-pyridyl]-[4-(methylamino)-7H-pyrrolo[2,3-d]pyrimidin-5-yl]methanone]
IC50 [4]: < 5 µM | IC50 [5]: < 5 µM | IC50 [1]: > 1 µM | IC50 [6]: > 10 µM | IC50 [3]: > 1 µM

Cc1ccc(Nc2ccc(C(=O)c3c[nH]c4ncnc(NCC5CC5)c34)c(F)n2)cn1 [Compound P-4113, [4-(cyclopropylmethylamino)-7H-pyrrolo[2,3-d]pyrimidin-5-yl]-[2-fluoro-6-[(6-methyl-3-pyridyl)amino]-3-pyridyl]methanone]
IC50 [4]: > 10 µM | IC50 [5]: > 10 µM | IC50 [1]: < 0.1 µM | IC50 [6]: > 10 µM

CCCNc1ncnc2[nH]cc(C(=O)c3ccc(Nc4ccc(C)nc4)nc3F)c12 [Compound P-4114, [2-fluoro-6-[(6-methyl-3-pyridyl)amino]-3-pyridyl]-[4-(propylamino)-7H-pyrrolo[2,3-d]pyrimidin-5-yl]methanone]
IC50 [4]: > 10 µM | IC50 [5]: > 10 µM | IC50 [1]: < 0.01 µM | IC50 [6]: > 10 µM
